The values below come from paper PMC11946580, “In Vitro Enzymatic and Computational Assessments of Pyrazole–Isatin and Pyrazole–Indole Conjugates as Anti-Diabetic, Anti-Arthritic, and Anti-Inflammatory Agents” (Pharmaceutics, 2025).

One experiment addresses α-glucosidase (Saccharomyces cerevisiae, UniProt P53341). The experiment can be described thus: α-glucosidase inhibition assay (pNPG). The experiment is classed as biochemical. Conditions: mean ± SE, three replicates. On the procedure:
In vitro enzymatic assessments
The mixture was then left at
The absorbance was measured
the enzymatic activity. […] The IC50

On the set-up of experiment [1]: method as in PMID 39143406. Conditions: cited from earlier work.
Another experiment deals with COX-2 enzyme. Set-up: method as in PMID 39143406. Conditions: cited from earlier work.
A further experiment has as its system diabetic mice. On the set-up: method as in PMID 38029465. To be noted: cited from earlier work.

Sequence of α-glucosidase (P53341 whole entry): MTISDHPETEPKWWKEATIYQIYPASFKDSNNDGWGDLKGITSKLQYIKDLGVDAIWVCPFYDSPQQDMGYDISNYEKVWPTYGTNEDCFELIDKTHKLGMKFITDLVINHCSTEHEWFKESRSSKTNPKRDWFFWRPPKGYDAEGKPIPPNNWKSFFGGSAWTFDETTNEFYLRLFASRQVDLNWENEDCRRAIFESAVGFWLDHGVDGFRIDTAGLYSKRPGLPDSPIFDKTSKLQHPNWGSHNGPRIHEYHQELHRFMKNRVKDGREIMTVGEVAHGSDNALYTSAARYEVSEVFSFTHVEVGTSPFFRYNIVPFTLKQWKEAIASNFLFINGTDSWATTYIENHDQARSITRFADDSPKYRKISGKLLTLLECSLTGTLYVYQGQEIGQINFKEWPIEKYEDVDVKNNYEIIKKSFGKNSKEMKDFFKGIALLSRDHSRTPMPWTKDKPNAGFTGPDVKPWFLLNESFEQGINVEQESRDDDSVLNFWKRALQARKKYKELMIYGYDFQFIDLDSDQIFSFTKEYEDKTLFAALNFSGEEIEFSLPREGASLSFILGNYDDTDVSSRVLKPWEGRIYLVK

For the compound `C[C@H]1O[C@H](O[C@H]2[C@H](O)[C@@H](O)[C@@H](O[C@H]3[C@H](O)[C@@H](O)C(O)O[C@@H]3CO)O[C@@H]2CO)[C@H](O)[C@@H](O)[C@@H]1N[C@H]1C=C(CO)[C@@H](O)[C@H](O)[C@H]1O` (some centres unmarked) [Acarbose], the “α-Glucosidase Inhibition (%)” value on α-glucosidase is reported as 62.33 ± 0.16%.

Usually IC50 stands for the point on the concentration scale where inhibition reaches its midpoint. As for `Cc1ccc(NS(=O)(=O)c2ccc(-c3csc(N/N=C4\C(=O)Nc5ccc(Cl)cc54)n3)cc2)cc1` [compound 6], in experiment [1], the “edema inhibition (EI)” value was 38.50%. Moreover, at COX-2 enzyme, the IC50 was 8.26 µM and the “selectivity against COX-2 (SI)” value was 2.65.

With `Cc1ccc(/C=C2\SC(=O)N(CC(=O)NCCc3c[nH]c4ccccc34)C2=O)cc1` [compound 7], the “glucose levels in diabetic mice” value with diabetic mice was “suppressed glucose levels in diabetic mice”.
